US10681909B2, “Herbicidal triazoles” (FMC Corporation, priority 2014, dated 2020)

Legend:
crabgrass, large = experiment: Test C preemergence; type: in vivo, Digitaria sanguinalis; conditions: for Plant response rating (scale of 0 to 100 where 0 is no effect and 100 is complete control): Crabgrass, Large, preemergence; for Crabgrass, Large plant response rating (0 to 100): Preemergence, visual rating after 13 to 15 d
How it was run: (§1)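 Surfactant-containing, non-phytotoxic solvent formulations of each compound were applied either preemergence to seeds in a loam soil–sand blend or postemergence to plants 2 to 18 cm tall (1- to 4-leaf stage). Postemergence plants were grown in peat moss–vermiculite medium.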

foxtail, green = experiment: Test D preemergence; type: in vivo, Setaria viridis; conditions: for Plant response rating (0 to 100), Foxtail, Green: 16 g ai/ha, 0 is no effect, 100 is complete control; for Plant response rating: Foxtail, Green: scale 0 to 100
Text: (§2) Seeds of plant species selected from bluegrass (annual bluegrass, Poa annua), blackgrass (Alopecurus myosuroides), canarygrass (Phalaris minor), chickweed (common chickweed, Stellaria media), galium (catchweed bedstraw, Galium aparine), bromegrass, down (downy bromegrass, Bromus tectorum), Russian thistle (Salsola kali), field poppy (Papaver rhoeas), field violet (Viola arvensis), foxtail, green (green foxtail, Setaria viridis), deadnettle (henbit deadnettle, Lamium amplexicaule), ryegrass, Ital. (Italian ryegrass, Lolium multiflorum), kochia (Kochia scoparia), lambsquarters (Chenopodium album), oilseed rape (Brassica napus), pigweed (Amaranthus retroflexus), chamomile (scentless chamomile, Matricaria inodora), speedwell (bird's-eye speedwell, Veronica persica), barley, spring (spring barley, Hordeum vulgare), wheat, spring (spring wheat, Triticum aestivum), buckwheat, wild (wild buckwheat, Polygonum convolvulus), wild mustard (Sinapis arvensis), oat, wild (wild oat, Avena fatua), radish, wild (wild radish, Raphanus raphanistrum), […]), barley, winter (winter barley, Hordeum vulgare), and wheat, winter (winter wheat, Triticum aestivum) were planted into a silt loam soil and treated preemergence with test chemicals formulated in a non-phytotoxic solvent mixture which included a surfactant. At the same time, these species were planted in pots containing Sunshine Redi-Earth® planting medium comprising spaghnum peat moss, vermiculite, starter nutrients and dolomitic limestone and treated with postemergence applications of the test chemicals formulated in the same manner. Plants ranged in height from 2 to 18 cm (1- to 4-leaf stage). Treated plants and controls were maintained in a controlled growth environment for 14 to 21 d after which time all species were compared to controls and visually evaluated. […] A dash (-) response means no test result.

blackgrass = experiment: Test A postemergence; type: in vivo, Alopecurus myosuroides; conditions: 0 to 100 scale (0 no effect, 100 complete control), approx. 10 d
How it was run: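 Visual 0–100 ratings (0 no effect, 100 complete control) made roughly 10 days after treatment, comparing greenhouse-grown plants to untreated controls. Formulated test chemicals, with surfactant, went either as directed soil spray at planting or onto 2–10 cm seedlings bearing one to two leaves.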

Russian thistle = experiment: Test D postemergence; type: in vivo, Salsola kali; conditions: scale 0 to 100
Text: as §2

oilseed rape = experiment: Test D preemergence; type: in vivo, Brassica napus; conditions: for Plant response rating (0 to 100), Oilseed Rape: 16 g ai/ha, 0 is no effect, 100 is complete control; for Plant response rating: Oilseed Rape: scale 0 to 100
Text: as §2

ryegrass, Ital. = experiment: Test D preemergence; type: in vivo, Lolium multiflorum; conditions: for Plant response rating (0 to 100), Ryegrass, Ital.: 16 g ai/ha, 0 is no effect, 100 is complete control; for Plant response rating: Ryegrass, Ital.: scale 0 to 100
Text: as §2

field poppy = experiment: Test D preemergence; type: in vivo, Papaver rhoeas; conditions: for Plant response rating (0 to 100), Field Poppy: 16 g ai/ha, 0 is no effect, 100 is complete control; for Plant response rating: Field Poppy: scale 0 to 100
Text: as §2

wheat (winter wheat) = experiment: Test C preemergence; type: in vivo, Triticum aestivum; conditions: for Wheat plant response rating (0 to 100): Preemergence, visual rating after 13 to 15 d; for Plant response rating (scale of 0 to 100 where 0 is no effect and 100 is complete control): Wheat, preemergence, 250 g ai/ha
How it was run: as §1

lambsquarters = experiment: Test D preemergence; type: in vivo, Chenopodium album; conditions: for Plant response rating (0 to 100), Lambsquarters: 16 g ai/ha, 0 is no effect, 100 is complete control; for Plant response rating: Lambsquarters: scale 0 to 100
Text: as §2

| SMILES | Plant response rating (scale of 0 to 100 where 0 is no effect and 100 is complete control) (crabgrass, large; 125 g ai/ha) | Plant response rating (scale of 0 to 100 where 0 is no effect and 100 is complete control) (crabgrass, large; 250 g ai/ha) | Crabgrass, Large plant response rating (0 to 100) (crabgrass, large; 31 g ai/ha) | Crabgrass, Large plant response rating (0 to 100) (crabgrass, large; 62 g ai/ha) | Plant response rating (0 to 100), Foxtail, Green (foxtail, green) | Plant response rating: Foxtail, Green (foxtail, green; 62 g ai/ha) | Plant response rating: Foxtail, Green (foxtail, green; 125 g ai/ha) | Plant response rating, Blackgrass (blackgrass; 125 g ai/ha) | Plant response rating, Blackgrass (blackgrass; 500 g ai/ha) | Plant response rating: Russian Thistle (Russian thistle; 16 g ai/ha) | Plant response rating: Russian Thistle (Russian thistle; 31 g ai/ha) | Plant response rating: Russian Thistle (Russian thistle; 62 g ai/ha) | Plant response rating: Russian Thistle (Russian thistle; 125 g ai/ha) | Plant response rating (0 to 100), Oilseed Rape (oilseed rape) | Plant response rating: Oilseed Rape (oilseed rape; 62 g ai/ha) | Plant response rating: Oilseed Rape (oilseed rape; 125 g ai/ha) | Plant response rating (0 to 100), Ryegrass, Ital. (ryegrass, Ital.) | Plant response rating: Ryegrass, Ital. (ryegrass, Ital.; 62 g ai/ha) | Plant response rating: Ryegrass, Ital. (ryegrass, Ital.; 125 g ai/ha) | Plant response rating (0 to 100), Field Poppy (field poppy) | further results |
| --- | --- | --- | --- | --- | --- | --- | --- | --- | --- | --- | --- | --- | --- | --- | --- | --- | --- | --- | --- | --- | --- |
| Fc1ccc(-c2nc(OCC(F)(F)F)n(Cc3ccnc(C(F)(F)F)c3)n2)cc1 [Compound 30] | 100 | 100 | 98 | 100 | 85 | 100 | 100 | 30 | 80 | 80 | 90 | 90 | 90 | 10 | 35 | 55 | 40 | 55 | 70 | 95 | Plant response rating: Field Poppy (field poppy; 62 g ai/ha): 100; Plant response rating: Field Poppy (field poppy; 125 g ai/ha): 100; Wheat plant response rating (0 to 100) (wheat (winter wheat); 31 g ai/ha): 0; Wheat plant response rating (0 to 100) (wheat (winter wheat); 62 g ai/ha): 0; Plant response rating (scale of 0 to 100 where 0 is no effect and 100 is complete control) (wheat (winter wheat)): 35; Plant response rating (0 to 100), Lambsquarters (lambsquarters): 85; Plant response rating: Lambsquarters (lambsquarters; 62 g ai/ha): 95; Plant response rating: Lambsquarters (lambsquarters; 125 g ai/ha): 95 |
| FC(F)(F)COc1nc(-c2ccccc2)nn1Cc1ccnc(C(F)(F)F)c1 [Compound 24] | 100 | 100 | 98 | 98 | 75 | 98 | 100 | 40 | 60 | 65 | 75 | 85 | 85 | 15 | 55 | 70 | 40 | 40 | 45 | 95 | Plant response rating: Field Poppy (field poppy; 62 g ai/ha): 100; Plant response rating: Field Poppy (field poppy; 125 g ai/ha): 100; Wheat plant response rating (0 to 100) (wheat (winter wheat); 31 g ai/ha): 0; Wheat plant response rating (0 to 100) (wheat (winter wheat); 62 g ai/ha): 0; Plant response rating (scale of 0 to 100 where 0 is no effect and 100 is complete control) (wheat (winter wheat)): 5; Plant response rating (0 to 100), Lambsquarters (lambsquarters): 65; Plant response rating: Lambsquarters (lambsquarters; 62 g ai/ha): 80; Plant response rating: Lambsquarters (lambsquarters; 125 g ai/ha): 85 |
